The results in this text go back to US5750146A, “Translucent collagen formulations with a cytotoxic drug” (Matrix Pharmaceutical, Inc., priority 1995, dated 1998).

The structures appear in SMILES notation.

What all share (assay type): physicochemical
One series has as its system collagen. The series is described as follows: Differential Scanning Calorimetry (DSC) scan of collagen transition temperature. The settings on record: for compatibility of cytotoxic drug with collagen: judged from collagen transition temperature. On the technique in general: In DSC, transitions show as peaks or steps in heat flow.
The nature of series [1]: optical appearance of aqueous collagen compositions on storage. As for the experimental part: Mixing was conducted by repeated transfers between two syringes connected by a mixing adapter. […] The results of these scans are illustrated in FIG. 5 and 6, respectively.
A second study was conducted to determine the amount of fluorouracil required to effect clarification on an opaque aqueous collagen composition. Specifically, aqueous collagen compositions were formulated to contain collagen (21.7 mg/mL), 0.033M phosphate buffer and varying amounts of fluorouracil. Each composition was then stored at about 2° C. to 8° C. for 17 days and the optical appearance of the composition measured periodically.
Specifically, in this example, the concentration of methotrexate in the collagen composition was varied and the collagen compositions were stored for 1 day and 3 days at either at 2° C. to 8° C. or at room temperature. The results at 3 days were the same as those found after 1 day and, accordingly, Table III below sets forth only the results from day 1.
A second study was conducted by preparing collagen compositions having 0.033M potassium phosphate buffer and […]. The pH of the solution was adjusted by the addition of HCl or NaOH as necessary to modify the pHs of the compositions to approximately 5, 7, 8 and 9. The compositions were stored at either room temperature or at 2-8° C. The optical appearance of these compositions was evaluated at 1 and 11 days after storage.

Series [2] can be described thus: optical absorbance at 410 nm (optical opacity) of aqueous collagen compositions, 1 mm pathlength. The settings on record: 0.25M additive, 6.5 weight percent collagen, pH 9.1, 2° to 8° C., 10 minutes. Here is the method: Aliquots (0.5 mL) of each of the compositions were placed in microcuvet having a 1 mm pathlength at different temperatures for 10 minutes wherein the first aliquot was stored at about 12° C, the second aliquot was stored at about 8° C. and the third aliquot was stored at about 4° C. The optical opacity of each sample was then measured at 30 second intervals by determining the absorbance of light (410 nm) through the microcuvet. Lower absorbance in each case corresponds to greater optical clarity at 410 nm.
Three identical aqueous collagen compositions were prepared as above with the exception that the amount of fluorouracil incorporated into the compositions were varied to be 16.65 mg/mL, 22.2 mg/mL and 33.3 mg/mL respectively. The resulting compositions were stored at 4° C. as aliquots (0.5 mL) in microcuvets having a 1 mm pathlength for 10 minutes and the optical opacity of each sample was measured at 30 second intervals by determining the absorbance of light (410 nm) through the microcuvet. Lower absorbance in each case corresponds to greater optical clarity at 410 nm.
Both compositions were then stored at from about 2° to 8° C. as aliquots (0.5 mL) in microcuvets having a 1 mm pathlength for 10 minutes and the optical opacity of each sample was measured at 15 second intervals by determining the absorbance of light (410 nm) through the microcuvet. […]

Turning to `CN(Cc1cnc2nc(N)nc(N)c2n1)c1ccc(C(=O)N[C@@H](CCC(=O)O)C(=O)O)cc1` [methotrexate], the “compatibility of cytotoxic drug with collagen” value with collagen is listed as “compatible cytotoxic drug”. The “effect of refrigeration and high concentration on optical clarity” value in series [1] (refrigeration, high concentrations of methotrexate) is “both refrigeration and high concentrations of methotrexate are effective in effecting optical clarity”.
Take `O=c1[nH]cc(F)c(=O)[nH]1` [fluorouracil, 5-fluoro-2,4-(1H, 3H)pyrimidinedione]: in series [2], the “effect of additive on clarifying the collagen composition (FIG. 11)” value is “only fluorouracil has any significant effect on clarifying the collagen composition”. Besides, the “compatibility of cytotoxic drug with collagen” value with collagen is recorded as “compatible cytotoxic drug”. In addition, the “clarifying effect on opaque collagen composition” value in series [1] (fluorouracil at 20 mg/mL, 2° C. to 8° C.) is recorded as “some clarifying affect on the opaque collagen composition”.
In the case of `N.N.[Cl][Pt][Cl]` [cisplatin, cis-diamino dichlororplatinum (II)], in the series on collagen (room temperature, up to 8 hours), the “cross-linking to collagen (increase in transition temperature over time)” value is recorded as “cross-linking (i.e., covalent bonding) of the cisplatin to the collagen”.
